# According to patent US20230219906A1, “MACROCYCLIC-2-AMINO-3-FLUORO-BUT-3-ENAMIDES AS INHIBITORS OF MCL-1” (Janssen Pharmaceutica NV, priority 2020, published 2023):
# Where two headings read alike, the source gives them in different places.
# Tests used:
# [1] = test system: MOLP-8 human multiple myeloma cell line; assay: Caspase-Glo 3/7 apoptosis induction assay in MOLP-8 cells; type: cell-based; conditions: caspase-3/7 activity, 2 hours at 37° C., averaged over all runs on all batches, read-out: MOLP8 AC50
# Text: MCL-1 is a regulator of apoptosis and is highly over-expressed in tumor cells that escape cell death. The assay evaluates the cellular potency of small-molecule compounds targeting regulators of the apoptosis pathway, primarily MCL-1, Bfl-1, Bcl-2, and other proteins of the Bcl-2 family. Protein-protein inhibitors disrupting the interaction of anti-apoptotic regulators with BH3-domain proteins initiate apoptosis.
# The Caspase-Glo® 3/7 Assay is a luminescent assay that measures caspase-3 and −7 activities in purified enzyme preparations or cultures of adherent or suspension cells. The assay provides a proluminescent caspase-3/7 substrate, which contains the tetrapeptide sequence DEVD. This substrate is cleaved to release aminoluciferin, a substrate of luciferase used in the production of light. Addition of the single Caspase-Glo® 3/7 Reagent in an “add-mix-measure” format results in cell lysis, followed by caspase cleavage of the substrate and generation of a “glow-type” luminescent signal.
# This assay uses the MOLP-8 human multiple myeloma cell line, which is sensitive to MCL-1 inhibition.
# Cell cultures were maintained between 0.2 and 2.0×10^6 cells/mL. The cells were harvested by collection in 50 mL conical tubes. The cells were then pelleted at 500 g for 5 mins before removing supernatant and resuspension in fresh pre-warmed culture medium. The cells were counted and diluted as needed.
# The assay reagent was prepared by transferring the buffer solution to the substrate vial and mixing. The solution may be stored for up to 1 week at 4° C. with negligible loss of signal.
# Compounds were delivered in assay-ready plates (Proxiplate) and stored at −20° C. Assays always include 1 reference compound plate containing reference compounds. The plates were spotted with 40 nL of compounds (0.5% DMSO final in cells; serial dilution; […] highest conc. 1/3 dilution, 10 doses, duplicates). The compounds were used at room temperature and 4 μL of pre-warmed media was added to all wells except column 2 and 23. The negative control was prepared by adding 1% DMSO in media. The positive control was prepared by adding the appropriate positive control compound in final concentration of […] in media. The plate was prepared by adding 4 μL negative control to column 23, 4 μL positive control to column 2 and 4 μL cell suspension to all wells in the plate. The plate with cells was then incubated at 37° C. for 2 hours. The assay signal reagent is the Caspase-Glo solution described above, and 8 μL was added to all wells. The plates were then sealed and measured after 30 minutes.
# The activity of a test compound was calculated as percent change in apoptosis induction as follows:
# % Effect (AC50)=100−(sample-LC)/(HC-LC)*100
# % Control=(sample/HC)*100
# % Control min=(sample-LC)/(HC-LC)*100
# [2] = molecular target: Myeloid Cell Leukemia 1(Mcl-1) (Homo sapiens, UniProt Q07820); assay: Terbium labeled Mcl-1 HTRF binding assay with Cy5-labeled BIM BH3 peptide; conditions: displacement of Cy5 Bim BH3 peptide; Ki=IC50/(1+[L]/Kd), [L]=8 nM, Kd=10 nM; 60 minutes at room temperature; read-out: Tb-MCL1 Ki
# Method: Terbium labeled Myeloid Cell Leukemia 1(Mcl-1) homogeneous time-resolved fluorescence (HTRF) binding assay utilizing the BIM BH3 peptide (H2N—(C/Cy5Mal) WIAQELRRIGDEFN-OH) as the binding partner for Mcl-1.
# This assay evaluated inhibition of the BH3 domain: Mcl-1 interaction by measuring the displacement of Cy5-labeled BIM BH3 peptide (H2N—(C/Cy5Mal) WIAQELRRIGDEFN-OH) in the HTRF assay format.
# The following assay and stock buffers were prepared for use in the assay: (a) Stock buffer: 10 mM Tris-HCl, pH=7.5+150 mM NaCl, filtered, sterilized, and stored at 4° C.; and (b) 1X assay buffer, where the following ingredients were added fresh to stock buffer: 2 mM dithiothreitol (DTT), 0.0025% Tween-20, 0.1 mg/mL bovine serum albumin (BSA). The 1X Tb-Mcl-1+Cy5 Bim peptide solution was prepared by diluting the protein stock solution using the 1X assay buffer (b) to 25 pM Tb-Mcl-1 and 8 nM Cy5 Bim peptide.
# Using the Acoustic ECHO, 100 nL of 100x test compound(s) were dispensed into individual wells of a white 384-well Perkin Elmer Proxiplate, for a final compound concentration of 1× and final DMSO concentration of 1%. Inhibitor control and neutral control (NC, 100 nL of 100% DMSO) were stamped into columns 23 and 24 of assay plate, respectively. Into each well of the plate was then dispensed 10 μL of the 1X Tb-Mcl-1+Cy5 Bim peptide solution. The plate was centrifuged with a cover plate at 1000 rpm for 1 minute, then incubated for 60 minutes at room temperature with plates covered.
# The TR-FRET signal was read on an BMG PHERAStar FSX MicroPlate Reader at room temperature using the HTRF optic module (HTRF: excitation: 337 nm, light source: laser, emission A: 665 nm, emission B: 620 nm, integration start: 60 μs, integration time: […]).
# The BMG PHERAStar FSX MicroPlate Reader was used to measure fluorescence intensity at two emission wavelengths—665 nm and 620 nm—and report relative fluorescence units (RFU) for both emissions, as well as a ratio of the emissions (665 nm/620 nm)*10,000. The RFU values were normalized to percent inhibition as follows:
# % inhibition=(((NC−IC)−(compound−IC))/(NC−IC))*100
# where IC (inhibitor control, low signal)= mean signal of 1X Tb-MCl-1+Cy5 Bim peptide+inhibitor control or 100% inhibition of Mcl-1; NC (neutral control, high signal)= mean signal 1X Tb-MCl-1+Cy5 Bim peptide with DMSO only or 0% inhibition An 11-point dose response curve was generated to determine IC50 values (using GenData) based on the following equation:
# Y=Bottom+(Top−Bottom)/(1+10∧((log IC50−X)*HillSlope))
# where Y=% inhibition in the presence of X inhibitor concentration; Top=100% inhibition derived from the IC (mean signal of Mcl-1+inhibitor control); Bottom=0% inhibition derived from the NC (mean signal of Mcl-1+DMSO); Hillslope=Hill coefficient; and IC50=concentration of compound with 50% inhibition in relation to top/neutral control (NC).
# In this assay [L]=8 nM and Kd=10 nM
# Sequence of Myeloid Cell Leukemia 1(Mcl-1) (Q07820 whole entry): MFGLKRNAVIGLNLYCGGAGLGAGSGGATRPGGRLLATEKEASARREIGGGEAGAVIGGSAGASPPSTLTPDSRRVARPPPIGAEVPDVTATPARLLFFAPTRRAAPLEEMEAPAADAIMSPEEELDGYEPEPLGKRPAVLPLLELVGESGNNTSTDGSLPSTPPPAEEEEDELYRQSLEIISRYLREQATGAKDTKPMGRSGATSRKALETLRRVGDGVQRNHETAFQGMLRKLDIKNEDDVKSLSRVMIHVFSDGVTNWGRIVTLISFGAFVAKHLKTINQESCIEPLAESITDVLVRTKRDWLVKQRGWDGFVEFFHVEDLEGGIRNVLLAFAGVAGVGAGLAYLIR
Structure (SMILES),"AC50 ([1]; Homo sapiens, MOLP-8, 2 h) [nM]",Ki [2] [nM],AC50 [1] [nM]
"C[C@@H]1[C@@H](C)C/C=C(\F)[C@H](C(=O)N(C)CCN2CCOC(C(F)(F)F)C2)N2CCC[C@H]2CN2C[C@@]3(CCCc4cc(Cl)ccc43)COc3ccc(cc32)C(=O)NS1(=O)=O (single isomer, unassigned) [Compound 49]",366,0.287,–
C[C@@H]1[C@@H](C)C/C=C(\F)[C@H](C(=O)N(C)CCN2CCCOCC2)N2CCC[C@H]2CN2C[C@@]3(CCCc4cc(Cl)ccc43)COc3ccc(cc32)C(=O)NS1(=O)=O [Compound 75],83,0.022,–
COCCN(CCOC)C(=O)[C@H]1/C(F)=C/C[C@H](C)CS(=O)(=O)NC(=O)c2ccc3c(c2)N(C[C@@H]2CCCN21)C[C@@]1(CCCc2cc(Cl)ccc21)CO3 [Compound 88],116,0.029,–
COCCN(CCOC)CCN(C)C(=O)[C@H]1/C(F)=C/C[C@H](C)[C@@H](C)S(=O)(=O)NC(=O)c2ccc3c(c2)N(C[C@@H]2CCCN21)C[C@@]1(CCCc2cc(Cl)ccc21)CO3 [Compound 73],91.4,0.021,–
COCCOCCN(C)C(=O)[C@H]1/C(F)=C/C[C@H](C)[C@@H](C)S(=O)(=O)NC(=O)c2ccc3c(c2)N(C[C@@H]2CCCN21)C[C@@]1(CCCc2cc(Cl)ccc21)CO3 [Compound 19],79.3,0.045,–
C[C@@H]1[C@@H](C)C/C=C(\F)[C@H](C(=O)N(C)CCO)N2CCC[C@H]2CN2C[C@@]3(CCCc4cc(Cl)ccc43)COc3ccc(cc32)C(=O)NS1(=O)=O [Compound 27],396,0.054,–
C[C@@H]1[C@@H](C)C/C=C(\F)[C@H](C(=O)N2CCN(C)C3(CC3)C2)N2CCC[C@H]2CN2C[C@@]3(CCCc4cc(Cl)ccc43)COc3ccc(cc32)C(=O)NS1(=O)=O [Compound 83],252,0.061,–
"C[C@@H]1[C@@H](C)C/C=C(\F)[C@H](C(=O)N(C)CC2CCCOC2)N2CCC[C@H]2CN2C[C@@]3(CCCc4cc(Cl)ccc43)COc3ccc(cc32)C(=O)NS1(=O)=O (single isomer, unassigned) [Compound 65]",–,0.062,56.7
C[C@@H]1[C@@H](C)C/C=C(\F)[C@H](C(=O)N2CCC(F)(F)CC2)N2CCC[C@H]2CN2C[C@@]3(CCCc4cc(Cl)ccc43)COc3ccc(cc32)C(=O)NS1(=O)=O [Compound 43],399,0.438,–
C[C@@H]1[C@@H](C)C/C=C(\F)[C@H](C(=O)N2CC[C@@H](C#N)C2)N2CCC[C@H]2CN2C[C@@]3(CCCc4cc(Cl)ccc43)COc3ccc(cc32)C(=O)NS1(=O)=O [Compound 47],241,0.065,–
"C[C@@H]1[C@@H](C)C/C=C(\F)[C@H](C(=O)N(C)CC2CCCCO2)N2CCC[C@H]2CN2C[C@@]3(CCCc4cc(Cl)ccc43)COc3ccc(cc32)C(=O)NS1(=O)=O (single isomer, unassigned) [Compound 72]",–,0.061,75.2
C[C@@H]1[C@@H](C)C/C=C(\F)[C@H](C(=O)N(C)Cc2nnn(C)n2)N2CCC[C@H]2CN2C[C@@]3(CCCc4cc(Cl)ccc43)COc3ccc(cc32)C(=O)NS1(=O)=O [Compound 67],120,0.037,–
C[C@@H]1[C@@H](C)C/C=C(\F)[C@H](C(=O)N(C)CCN2CCOCC2C(F)(F)F)N2CCC[C@H]2CN2C[C@@]3(CCCc4cc(Cl)ccc43)COc3ccc(cc32)C(=O)NS1(=O)=O (mixture of isomers) [Compound 50],175,0.146,–
C[C@@H]1CN(C(=O)[C@H]2/C(F)=C/C[C@H](C)[C@@H](C)S(=O)(=O)NC(=O)c3ccc4c(c3)N(C[C@@H]3CCCN32)C[C@@]2(CCCc3cc(Cl)ccc32)CO4)CCO1 [Compound 4],71.3,0.084,–
C[C@@H]1[C@@H](C)C/C=C(\F)[C@H](C(=O)N(C)CC(F)(F)F)N2CCC[C@H]2CN2C[C@@]3(CCCc4cc(Cl)ccc43)COc3ccc(cc32)C(=O)NS1(=O)=O [Compound 30],351,0.379,–
C[C@@H]1[C@@H](C)C/C=C(\F)C(CO)(C(=O)N(C)CCN2CCOCC2)N2CCC[C@H]2CN2C[C@@]3(CCCc4cc(Cl)ccc43)COc3ccc(cc32)C(=O)NS1(=O)=O (stereo partly drawn) [Compound 86],1600,0.032,–
C[C@@H]1[C@@H](C)C/C=C(\F)[C@H](C(=O)N(C)CCOc2cncc(F)c2)N2CCC[C@H]2CN2C[C@@]3(CCCc4cc(Cl)ccc43)COc3ccc(cc32)C(=O)NS1(=O)=O [Compound 48],112,0.155,–
"C[C@@H]1COCCN1C(=O)[C@H]1/C(F)=C/C[C@H](C)[C@@H](C)S(=O)(=O)NC(=O)c2ccc3c(c2)N(C[C@@H]2CCCN21)C[C@@]1(CCCc2cc(Cl)ccc21)CO3 (single isomer, unassigned) [Compound 11]",163,0.032,–
COC1(C(F)(F)F)CN(C(=O)[C@H]2/C(F)=C/C[C@H](C)[C@@H](C)S(=O)(=O)NC(=O)c3ccc4c(c3)N(C[C@@H]3CCCN32)C[C@@]2(CCCc3cc(Cl)ccc32)CO4)C1 [Compound 42],463,0.374,–
"C[C@@H]1[C@@H](C)C/C=C(\F)[C@H](C(=O)N(C)C2CCCOC2)N2CCC[C@H]2CN2C[C@@]3(CCCc4cc(Cl)ccc43)COc3ccc(cc32)C(=O)NS1(=O)=O (single isomer, unassigned) [Compound 62]",134,0.058,–
C[C@@H]1[C@@H](C)C/C=C(\F)[C@H](C(=O)N2CCCC3(C2)CC3(F)F)N2CCC[C@H]2CN2C[C@@]3(CCCc4cc(Cl)ccc43)COc3ccc(cc32)C(=O)NS1(=O)=O (stereo partly drawn) [Compound 29],408,0.494,–
